This is an account of results in US7202245B2, “Substituted 4-amino[1,2,4]triazolo[4,3-a] quinoxalines” (Pfizer Inc., priority 2003, dated 2007).

The term IC50 denotes the concentration needed to halve the response being measured.

SMILES strings stand for the structures.

This assay has as its target T1, GSK-3 (Homo sapiens, UniProt P49841).
T1 construct: made in house; as in Stambolic et al. 1996
The assay is described as follows: GSK-3 inhibition, cell-free 33P-ATP peptide substrate assay. It is filed as biochemical. The settings on record: read-out: inhibitory activity, expressed as IC50's, against GSK-3. As for the experimental part:
The specific activities of the compounds of formula (I) in inhibiting GSK-3 can be determined in both cell-free and cell-based assays, both of which have been previously described in the relevant art. See, for example, U.S. Pat. Nos. 6,417,185 and 6,489,344, the disclosures of which are incorporated herein by reference in their entirety.
A cell-free testing assay can be generally carried out by incubating GSK-3 with a peptide substrate, radiolabeled ATP (e.g., for example, […], both of which are available from Amersham; Arlington Heights, Ill.), magnesium ions, and the compound to be assayed. […] The amount of γ^33P or γ^32P remaining in each well after washing is then quantified to determine the amount of radiolabeled phosphate incorporated into the peptide substrate. […]
Another example of a GSK-3 testing assay, similar to the one described hereinabove, is as follows: enzyme activities are assayed as the incorporation of ^33P from the gamma phosphate of ^33P-ATP (Amersham; Arlington Heights, Ill.; catalog #AH-9968) into biotinylated peptide substrate PKTP-KKAKKL. […] The final concentration of ATP is 0.5 μM (final specific radioactivity of 4 μCi/nmol), and the final concentration of substrate is 0.75 μM. […] Radioactivity associated with the beads is then quantified by standard scintillation counting. […]

T1 sequence (P49841 whole entry): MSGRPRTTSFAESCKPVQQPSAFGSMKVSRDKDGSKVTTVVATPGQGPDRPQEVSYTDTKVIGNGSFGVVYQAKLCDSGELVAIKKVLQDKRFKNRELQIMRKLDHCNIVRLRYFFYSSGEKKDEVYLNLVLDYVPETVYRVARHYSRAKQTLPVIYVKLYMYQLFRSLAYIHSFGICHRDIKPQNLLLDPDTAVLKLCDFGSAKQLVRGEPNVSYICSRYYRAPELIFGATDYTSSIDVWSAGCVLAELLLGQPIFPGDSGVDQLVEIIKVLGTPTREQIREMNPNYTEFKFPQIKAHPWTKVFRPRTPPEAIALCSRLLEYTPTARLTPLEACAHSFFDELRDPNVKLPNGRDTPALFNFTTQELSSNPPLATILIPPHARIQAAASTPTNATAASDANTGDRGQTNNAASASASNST

For `O=c1[nH]nc2c(NCCNc3ccc(C(F)(F)F)cn3)nc3ccc(F)cc3n12` [Example 71, 8-Fluoro-4-[2-(5-trifluoromethyl-pyridin-2-Ylamino)-ethylamino]-2H-[1,2,4]triazolo[4,3-a]quinoxalin-1-one], the IC50 was 6 nM.
